This passage reports AC50, IC50 and GI50 results from patent publication US20260285853A1, “COMPOUNDS AND METHODS FOR MODULATING SPLICING” (REMIX THERAPEUTICS INC., priority 2023, published 2026).

Assay type in all cases: cell-based
In assay [1] the test system is MYB mRNA. Kind of assay: Splicing RT-qPCR assay (THP), Table 2A. Particulars: Table 2A (THP); for AC50: AJ mRNA increase, read-out: MYB AJ (increase in alternative junction mRNA, AC50); for IC50: CJ mRNA decrease, read-out: MYB CJ (decrease in canonical junction mRNA, IC50).
Assay [2] relates to HTT mRNA. Kind of assay: Splicing RT-qPCR assay (THP), Table 2A. Particulars: Table 2A (THP); for AC50: AJ mRNA increase, read-out: HTT AJ (increase in alternative junction mRNA, AC50); for IC50: CJ mRNA decrease, read-out: HTT CJ (decrease in canonical junction mRNA, IC50). (In general: Real-time PCR tracks product formation cycle by cycle.)
The test system of assay [3] is MYB mRNA. Kind of assay: Gene panel canonical junction qPCR assay, decrease in CJ mRNA, Table 3. Particulars: decrease in canonical junction (CJ) mRNA, gene panel qPCR, Table 3. In short, it runs like this: (§1)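 IC50 denotes the concentration giving 50% decrease in canonical-junction mRNA, fitted by 4-parameter logistic to percentage response derived from ΔΔCt versus housekeeping gene and DMSO control. Cells (A673 or K562) exposed 24 h to 11-point 3-fold serial dilutions from 10 uM top, DMSO ≤0.25%; junction-spanning primer/probe qPCR.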

Assay [4] deals with HTT mRNA. The description is as above. Conditions: decrease in canonical junction (CJ) mRNA, gene panel qPCR, Table 3. The procedure, abridged:
as §1

The subject of assay [5] is SH-SY5Y (human neuroblastoma) cells. Kind of assay: Cell viability, Cell Titer Glo 2.0 assay. Conditions: read-out: Viability SHSY5Y.3 GI50. In short, it runs like this:
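Viability was read by CellTiter-Glo 2.0 luminescence after a 72-hour compound exposure at 37° C. under 5% CO2. Cells were in IMDM plus 10% FBS containing 0.1% DMSO, and medium-only wells gave the blank.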
A general note: Cellular ATP, detected with luciferase, serves as a proxy for viable cell number.

The structures appear in SMILES notation.

A word on the AC50: it is the concentration giving half of the maximal activity seen. Broadly, the IC50 is the concentration that inhibits the measured activity by half. For orientation: GI50 means the concentration that inhibits growth by half. As for `COc1cc2nn(C)cc2cc1C#Cc1ccc(N2CCC(NC3CC3)CC2)c2cn(C)nc12` [Compound 437, N-cyclopropyl-1-[7-[2-(6-methoxy-2-methyl-indazol-5-yl)ethynyl]-2-methyl-indazol-4-yl]-piperidin-4-amine], the AC50 in assay [1] and in assay [2] was > 10 µM throughout. The IC50 in assay [1], in assay [2], in assay [3] and in assay [4] was > 10 µM each time. In assay [5], the GI50 lay within 1 to 10 µM.

Turning to `Cn1cc2cc(NC(=O)c3c(F)cc(N4CCC(NC5CC5)CC4)c4cn(C)nc34)c(OC3CC3)cc2n1` [Compound 438, N-[6-(cyclopropoxy)-2-methyl-indazol-5-yl]-4-[4-(cyclopropylamino)-1-piperidyl]-6-fluoro-2-methyl-indazole-7-carboxamide], the AC50 in assay [1] and in assay [2] was > 10 µM in each case. Further, the IC50 in assay [1], in assay [2], in assay [3] and in assay [4] was > 10 µM throughout. For the same compound, the GI50 in assay [5] was > 10 µM.

As for `Cn1cc2cc(NC(=O)c3c(F)cc(N4CCC(NC5CC5)CC4)c4cn(C)nc34)c(Cl)cc2n1` [Compound 439, N-(6-chloro-2-methyl-indazol-5-yl)-4-[4-(cyclopropylamino)-1-piperidyl]-6-fluoro-2-methyl-indazole-7-carboxamide], the AC50 in assay [1] and in assay [2] was > 10 µM throughout. Moreover, the IC50 in assay [1], in assay [2], in assay [3] and in assay [4] was > 10 µM in each case. For the same compound, the GI50 in assay [5] is > 10 µM.

As to `COc1cc2nc(C)cn2cc1NC(=O)c1cnc(N2CCC(NC3CC3)CC2)c2cn(C)nc12` [Compound 440, 4-[4-(cyclopropylamino)-1-piperidyl]-N-(7-methoxy-2-methyl-imidazo[1,2-a]-pyridin-6-yl)-2-methyl-pyrazolo[4,3-c]-pyridine-7-carboxamide], the half-maximal activity concentration (AC50) in assay [1] is < 0.1 µM; in assay [2], 1 to 10 µM. Also, the IC50 is 0.1 to 1 µM in assay [1], 1 to 10 µM in assay [2], 0.1 to 1 µM in assay [3] and 1 to 10 µM in assay [4]. Also, the GI50 in assay [5] lay in the range of 0.1 to 1 µM.

On to `COc1cc2nn(C)cc2cc1NC(=O)c1c(NCCO)cc(N2CCC(NC3CC3)CC2)c2cn(C)nc12` [Compound 441, 4-[4-(cyclopropylamino)-1-piperidyl]-6-(2-hydroxyethylamino)-N-(6-methoxy-2-methyl-indazol-5-yl)-2-methyl-indazole-7-carboxamide], for which the AC50 in assay [1] and in assay [2] was 1 to 10 µM throughout. Besides, the IC50 in assay [1], in assay [2], in assay [3] and in assay [4] was 1 to 10 µM throughout. In assay [5], the GI50 was in the range of 1 to 10 µM.

Take `COCCNc1cc(N2CCC(NC3CC3)CC2)c2cn(C)nc2c1C(=O)Nc1cc2cn(C)nc2cc1OC` [Compound 442, 4-[4-(cyclopropylamino)-1-piperidyl]-6-(2-methoxyethylamino)-N-(6-methoxy-2-methyl-indazol-5-yl)-2-methyl-indazole-7-carboxamide]: the AC50 in assay [1] and in assay [2] was > 10 µM each time. Also, the IC50 in assay [1], in assay [2], in assay [3] and in assay [4] was > 10 µM in each case. Besides, in assay [5], the GI50 was 1 to 10 µM.

Take `COc1cc2nn(C)cc2cc1NC(=O)c1ccc(N2CCC(NC3CC3)CC2)c2cc(CO)nn12` [Compound 443, 4-(4-(cyclopropylamino)piperidin-1-yl)-2-(hydroxymethyl)-N-(6-methoxy-2-methyl-2H-indazol-5-yl)pyrazolo[1,5-a]pyridine-7-carboxamide 2,2,2-trifluoroacetate]: the AC50 in assay [1] is < 0.1 µM; in assay [2] it was 0.1 to 1 µM. The IC50 in assay [1], in assay [2], in assay [3] and in assay [4] was 0.1 to 1 µM each time. The GI50 in assay [5] lay in the range of 0.1 to 1 µM.

Regarding `COc1cc2nn(C)cc2cc1NC(=O)c1ccc(N2CCC(NC3CC3)CC2)c2cn(C)nc12` [Compound 444, 4-[4-(cyclopropylamino)-1-piperidyl]-N-(6-methoxy-2-methyl-indazol-5-yl)-2-methyl-indazole-7-carbox-amide], the figures for the AC50 in assay [1] and in assay [2] were < 0.1 µM and 1 to 10 µM, respectively. Moreover, the IC50 lay within 0.1 to 1 µM in assay [1], 1 to 10 µM in assay [2], 0.1 to 1 µM in assay [3] and 1 to 10 µM in assay [4]. Moreover, the GI50 in assay [5] fell in the range of 0.1 to 1 µM.

Consider `COc1cc2nn(C)cc2c(Cl)c1NC(=O)c1c(F)cc(N2CCC(NC3CC3)CC2)c2cn(C)nc12` [Compound 445, N-(4-chloro-6-methoxy-2-methyl-indazol-5-yl)-4-[4-(cyclopropylamino)-1-piperidyl]-6-fluoro-2-methyl-indazole-7-carboxamide 2,2,2-trifluoroacetate], for which the concentration at half-maximal activity (AC50) in assay [1] and in assay [2] was > 10 µM throughout. The IC50 in assay [1], in assay [2], in assay [3] and in assay [4] was > 10 µM throughout. The 50% growth inhibitory concentration (GI50) in assay [5] was > 10 µM.

In the case of `COc1cc2nn(C)cc2cc1C#Cc1c(F)cc(N2CCC(NC3CC3)CC2)c2cn(C)nc12` [Compound 446, N-cyclo-propyl-1-[6-fluoro-7-[2-(6-methoxy-2-methyl-indazol-5-yl)-ethynyl]-2-methyl-indazol-4-yl]-piperidin-4-amine], the AC50 in assay [1] and in assay [2] was > 10 µM throughout. Also, the IC50 in assay [1], in assay [2], in assay [3] and in assay [4] was 1 to 10 µM throughout. In addition, the GI50 in assay [5] fell in the range of 1 to 10 µM.

For the compound `COc1c(NC(=O)c2c(F)cc(N3CCC(NC4CC4)CC3)c3cn(C)nc23)ccn2nc(C)cc12` [Compound 447, 4-(4-(cyclopropylamino)piperidin-1-yl)-6-fluoro-N-(4-methoxy-2-methylpyrazolo-[1,5-a]pyridin-5-yl)-2-methyl-2H-indazole-7-carboxamide 2,2,2-trifluoroacetate], the AC50 in assay [1] and in assay [2] was > 10 µM throughout. Moreover, the IC50 in assay [1] is 1 to 10 µM; in assay [2], > 10 µM; in assay [3], 1 to 10 µM; in assay [4], > 10 µM. Besides, in assay [5], the GI50 lay in the range of 1 to 10 µM.

Consider `COc1cc2n[nH]cc2cc1NC(=O)c1c(F)cc(N2CCC(NC3CC3)CC2)c2cn(C)nc12` [Compound 449, 4-[4-(cyclopropylamino)-1-piperidyl]-6-fluoro-N-(6-methoxy-2H-indazol-5-yl)-2-methyl-indazole-7-carboxamide], for which the AC50 in assay [1] and in assay [2] was > 10 µM in each case. Moreover, the IC50 in assay [1], in assay [2], in assay [3] and in assay [4] was > 10 µM each time. Further, the GI50 in assay [5] is > 10 µM.

In the case of `COc1cc2nn(C)cc2cc1NC(=O)c1c(N)cc(N2CCC(NC3CC3)CC2)c2cn(C)nc12` [Compound 450, 6-amino-4-[4-(cyclopropylamino)-1-piperidyl]-N-(6-methoxy-2-methyl-indazol-5-yl)-2-methyl-indazole-7-carboxamide], the AC50 in assay [1] and in assay [2] was > 10 µM throughout. The IC50 in assay [1], in assay [2], in assay [3] and in assay [4] was > 10 µM throughout. For the same compound, the GI50 in assay [5] lay within 1 to 10 µM.

For `Cc1cc2cc(NC(=O)c3ccc(N4CCC(NC5CC5)CC4)c4cn(C)nc34)oc2c(C)n1` [Compound 451, 4-(4-(cyclopropylamino)piperidin-1-yl)-N-(5,7-dimethyl-furo-[2,3-c]pyridin-2-yl)-2-methyl-2H-indazole-7-carboxamide 2,2,2-trifluoroacetate], the AC50 in assay [1] was 1 to 10 µM; in assay [2], > 10 µM. Moreover, the IC50 in assay [1] is 1 to 10 µM; in assay [2], > 10 µM; in assay [3], 1 to 10 µM; in assay [4] it was > 10 µM. Moreover, the GI50 in assay [5] was 0.1 to 1 µM.

Take `CCNC1CCN(c2ccc(C(=O)Nc3cn4cc(C)nc(C)c4c3OC)c3nn(C)cc23)CC1` [Compound 452, 4-(4-(ethylamino)-piperidin-1-yl)-N-(8-methoxy-1,3-dimethyl-pyrrolo[1,2-a]pyrazin-7-yl)-2-methyl-2H-indazole-7-carboxamide 2,2,2-trifluoroacetate]: the half-maximal activity concentration (AC50) in assay [1] and in assay [2] was > 10 µM throughout. Besides, the IC50 in assay [1], in assay [2], in assay [3] and in assay [4] was > 10 µM in each case. In assay [5], the GI50 was in the range of 1 to 10 µM.
